From patent US8017579B2, “Treatment of viral infections” (priority 2003, dated 2011)
“And” between values parts separate entries of the source, which are not always exact repeats. Equal entries are not always repeated. Where two headings read alike, the source gives them in different places. Ends that are not written are not given here.

Key:
HSV1 [1] = type: cell-based, herpes simplex virus type 1; settings: for antiviral activity against HSV1 (in words): HSV1 plaque assay, Vero cells
Procedure: African Green Monkey Kidney (Vero) cells were maintained in Eagle's minimum essential medium with Earle's salt (EMEM) and supplemented with 10% foetal calf serum (heat-inactivated), 4 mM L-glutamine, and 1% (v/v) nonessential amino acids, plus penicillin and streptomycin (100 IU/ml and 100 μg/ml, respectively) (maintenance medium referred to as 10% EMEM). The cells were incubated at 37° C. in a humidified atmosphere of air with 5% CO2.
On harvesting, monolayers were washed in phosphate-buffered saline (PBS), and dislodged by incubating with trypsin in PBS for 30 min, before inactivating trypsin by addition of an equal volume of 10% EMEM and centrifuging at 500 g (5 min, 4° C.). Cell pellets were resuspended in 10% EMEM, prior to cell counting and seeding of 24-well plates. For antiviral assays, medium containing only 0.5% FCS was used (referred to as 0.5% EMEM).
Three separate passages of HSV1 virus were prepared by infecting Vero cells, and preparing semi-pure suspensions of virus from tissue culture supernatant and cell lysates, before freezing aliquots of virus at −85° C. Viral infectivity was assessed by carrying out plaque assays on serial dilutions of thawed aliquots (expressed in pfu/ml).
Peptides were obtained in lyophilised form from a commercial supplier (AltaBioscience, University of Birmingham or Advanced Biomedical), and were produced at 5 micromole scale. N-terminals were protected by addition of an acetyl group, and the C-terminals were protected by addition of an amide group.
Small quantities of peptide were weighed in sterile Eppendorf tubes, before addition of sufficient 0.5% EMEM to produce a 1.5 mM stock solution, which was frozen at −20° C. in aliquots.
(§1) Vero cells were seeded at 125,000 cells per well in 10% EMEM, and were incubated overnight resulting in confluent monolayers. Peptides were diluted in 0.5% EMEM to give 2× final desired concentration, and 100 μl aliquots were arranged on 96-well plates in arrangement to be used for 24-well plate; control wells containing normal 0.5% EMEM were also prepared. Virus stocks (p3) were thawed, and diluted in 0.5% EMEM such that there were around 100 pfu in 100 μl. Each 24-well plate was inoculated separately. Firstly 100 μl of virus stock was added to the peptide or control medium arranged on a 96-well plate. This was incubated at 37° C. for ten minutes before inoculation. Medium was removed from four wells of a 24-well plate containing confluent Vero, and the 200 μl inoculum added to the appropriate well. Once all wells were treated, the 24-well plate was incubated for a further 60-80 minutes. Finally the peptide-containing inoculum was removed, and 1 ml of 1% EMEM containing 1% carboxymethylcellulose was added to each well. Plates were incubated for a further 22 hours, before removal of overlay, and addition of 10% formaldehyde in PBS. After a further one hour incubation, fixative was removed, monolayers washed several times with tap water, and stained with carbol fuchsin solubilised in water. After 30 minutes stain was removed, and plates washed several times with tap water, before being air dried. Plaques were counted using an Olympus IX70 Inverting Microscope, and antiviral effect expressed as a percentage of the control value for each peptide concentration. The IC50 was calculated from plots of inhibitory effect against peptide concentration.
The methods employed were as described in Examples 1-4 expect peptides were prepared as 400 μM stocks in phosphate buffered saline (PBS).

HIV isolate SF162 = assay: HIV-1 infectious foci in NP2 glioma cells over-expressing CD4 and CCR5; type: cell-based; settings: HIV isolate SF162, NP-2 glioma cells overexpressing CCR5, 0.1 to 10 micromolar
Procedure: Similar experiments to those described in Example 2 were conducted to test the efficacy of the peptides according to the invention against HIV infection. The glioma cell line NP2 over-expressing both CD4 and the appropriate co-receptor (CCR5 or CXCR4) were maintained in DMEM supplemented with 10% FCS. 2×10^4 cells were plated per well of a 48-well plate 24 h prior to infection and grown at 37 C. The cells were then washed, and incubated in DMEM/FCS containing peptide concentrations ranging from 0.1 to 10 micromolar, at 37 C for 30 minutes. 200 focus-forming units of HIV-1 stocks were then added to each well, and the cells incubated at 37 C for a further 2 hours. The cells were then washed twice in PBS and fresh medium replaced. After 3 day's growth the cells were fixed in cold methanol:acetone, and stained in situ for expression of HIV-1 p24 using a monoclonal anti-p24 followed by a secondary anti-mouse beta-galactosidase conjugate. Expression was visualised by X-Gal staining and infectious foci enumerated by light-microscopy.

HSV2 clinical isolates = type: cell-based, herpes simplex virus type 2
Procedure: as §1
Plaque assays were performed. The methodology was as described in previous Examples for HSV1 plaque assays (including usage of Vero cells) except HSV2 clinical isolates (provided by Prof. Anthony Hart of Liverpool University) were employed instead.

HIV-1 = settings: 7 days; for % Decrease in HIV p24 Production, Mean ± sd / % Decrease in HIV p24 Production, Exp. 1-3: U937 cells
Procedure: The assay was carried out by incubating HIV infected U937 cells in the presence of various levels of peptide for 7 days, followed by assay for levels of the HIV protein p24 in the cells using an Enzyme Linked Immunoabsorbant Assay (ELISA) technique.

HSV1 [2] = assay: HSV1 plaque formation in Vero cells (Example 1); type: cell-based, herpes simplex virus type 1
Procedure: (§2) FIG. 1 and table 1 show typical results for the test for anti-HSV1 activity. The assay involved treating confluent Vero cells in 24-well plates with medium containing virus and varying amounts of peptide for one hour, followed by removal of this inoculum, and addition of viscous ‘overlay’ medium, containing 0.2% high viscosity carboxymethylcellulose. The overlay medium only allows infection of those cells immediately adjacent to an infected cell. After 2 days incubation and then fixation and staining, small patches of infected cells (or ‘plaques’) are visible, which are counted. Each of these corresponds to the infection of a single cell during the one hour inoculation. ApoE141-149dp produced a 40% reduction in plaque number at a concentration of around 20 μM. Note the peptide was only present in the experimental system for 1 hour.

HSV2 = HSV2 plaque formation in HEp-2 cells (Example 1); type: cell-based, herpes simplex virus type 2; settings: HSV2, HEp-2 cells
Procedure: as §2
FIG. 2 and table 2 show typical results for the test for anti-HSV2 activity. The assay was carried out as for the anti-HSV1 assay, except Hep-2 cells were used rather than Vero cells. ApoE141-149dp produced a 50% reduction in plaque number at a concentration of around 20 μM. Again note that the peptide was only present in the experimental system for 1 hour.

bacteria = settings: Azuma et al., Peptides, 21: 327-330 (2000); cited from earlier work
[3] = 5 μM peptide, untreated mean 152 ± 10.7

Substance: Ac-HMLDVMQDHFSRASSIIDEL (N-terminus assumed) [GIN 29]
- IC50 (HSV1 [1]): 38.5 µM

Substance: Ac-RLRARMEEMRLRARMEEM-NH2 (N-terminus and C-terminus assumed) [GIN 15]
- IC50 (HSV1 [1]): > 40 µM

Substance: Ac-WRWRKRWRKWRWRKRWRK-NH2 (N-terminus and C-terminus assumed) [GIN 33]
- anti-HIV action (in words) (HIV isolate SF162): anti-HIV action
- antiviral activity against HSV1 (in words) (HSV1 [1]): have antiviral activity
- IC50 (HSV2 clinical isolates): 10 µM

Substance: ApoE263-286: peptide from a region of apolipoprotein E that is not involved in HSPG receptor binding (SWFEPLVEDMQRQWAGLVEKVQAA; UniProt P02649 281-304, looked up, fragment)
- reduction in infectivity (HIV-1; HIV infected U937 cells, 20 μM): 20%
- % Decrease in HIV p24 Production, Mean ± sd (HIV-1; 10 μM peptide): 23.21 ± 12.79%
- % Decrease in HIV p24 Production, Mean ± sd (HIV-1; 20 μM peptide): 22.77 ± 13.07%
- % Decrease in HIV p24 Production, Exp. 1-3 (HIV-1; 30 μM peptide): 37.94% and 27.83% and 41.78%
- % Decrease in HIV p24 Production, Mean ± sd (HIV-1; 30 μM peptide): 35.85 ± 7.21%
- % Decrease in HIV p24 Production, Mean ± sd (HIV-1; 40 μM peptide): 38.87 ± 12.70%
- % Decrease in HIV p24 Production, Exp. 1-3 (HIV-1; 50 μM peptide): 33.36% and 41.45% and 45.66%
- % Decrease in HIV p24 Production, Mean ± sd (HIV-1; 50 μM peptide): 40.16 ± 6.25%
- Plaque number, wells 1-4 (HSV1 [2]; 5 μM peptide in inoculum for 1 hour, untreated mean 107 ± 14.2): 113 and 119 and 122 and 126
- Plaque number, Mean ± sd (HSV1 [2]; 5 μM peptide, untreated mean 107 ± 14.2): 120 ± 5.5
- Plaque number, Mean ± sd (HSV1 [2]; 10 μM peptide): 114 ± 11.1
- Plaque number, wells 1-4 (HSV1 [2]; 10 μM peptide): 116 and 124 and 102
- Plaque number, Mean ± sd (HSV1 [2]; 20 μM peptide): 127 ± 17.0
- Plaque number, wells 1-4 (HSV1 [2]; 20 μM peptide): 148 and 112 and 133 and 114
- Plaque number, Mean ± sd (HSV1 [2]; 30 μM peptide): 121 ± 11.2
- Plaque number, wells 1-4 (HSV1 [2]; 30 μM peptide): 134 and 109 and 114 and 125
- Plaque number, Mean ± sd (HSV1 [2]; 40 μM peptide): 126 ± 11.2
- Plaque number, wells 1-4 (HSV1 [2]; 40 μM peptide): 120 and 113 and 125 and 144
- Plaque number, Mean ± sd (HSV2; [3]): 152 ± 12.0
- Plaque number, wells 1-4 (HSV2; [3]): 135 and 160 and 161 and 152
- Plaque number, Mean ± sd (HSV2; 10 μM peptide): 141 ± 16.1
- Plaque number, wells 1-4 (HSV2; 10 μM peptide): 157 and 121 and 151 and 134
- Plaque number, Mean ± sd (HSV2; 20 μM peptide): 146 ± 27.3
- Plaque number, wells 1-4 (HSV2; 20 μM peptide): 118 and 150 and 182 and 134
- Plaque number, Mean ± sd (HSV2; 30 μM peptide): 124 ± 24.2
- Plaque number, wells 1-4 (HSV2; 30 μM peptide): 118 and 117 and 103 and 159
- Plaque number, Mean ± sd (HSV2; 40 μM peptide): 131 ± 24.2
- Plaque number, wells 1-4 (HSV2; 40 μM peptide): 132 and 144 and 125 and 124

Substance: ApoE 133-162: peptide derivative of apoE with antibacterial action (Azuma et al.) (LRVRLASHLRKLRKRLLRDADDLQKRLAVY; UniProt P02649 151-180, looked up, fragment)
- antibacterial action (in words) (bacteria): most effective

Substance: GERLRARMEGERLRARME-NH2 (C-terminus assumed) [GIN 14]
- IC50 (HSV1 [1]): > 40 µM
- antiviral activity against HSV1 (in words) (HSV1 [1]): no antiviral activity

Substance: HRWRKRWRKHRWRKRWRK-NH2 (C-terminus assumed) [MU_36]
- IC50 (HSV1 [1]): 10 µM

Substance: HRWRKRWRKWRWRKRWRK-NH2 (C-terminus assumed) [MU_31]
- IC50 (HSV1 [1]): 7.5 µM

Substance: KRWRKRWRKKRWRKRWRK-NH2 (C-terminus assumed) [MU_34]
- IC50 (HSV1 [1]): 9 µM

Substance: KRWRKRWRKWRWRKRWRK-NH2 (C-terminus assumed) [MU_29]
- IC50 (HSV1 [1]): 7.5 µM

Substance: LRKRKRLLRKRKRL-NH2 (C-terminus assumed) [GIN 37]
- IC50 (HSV1 [1]): 9 µM
- antiviral activity against HSV1 (in words) (HSV1 [1]): have antiviral activity

Substance: LRKRKRLRKLRKRKRLRK-NH2 (C-terminus assumed) [GIN 38]
- IC50 (HSV1 [1]): 9 µM
- antiviral activity against HSV1 (in words) (HSV1 [1]): have antiviral activity

Substance: LRTRKRGRKLRTRKRGRK-NH2 (C-terminus assumed) [GIN 16]
- IC50 (HSV1 [1]): 22 µM
- antiviral activity against HSV1 (in words) (HSV1 [1]): showed antiviral activity
- antiviral activity against HSV1 (in words) (HSV1 [1]; listed as GIN16): appreciable antiviral effect

Substance: LRWRKRWRKLRWRKRWRK-NH2 (C-terminus assumed) [MU_35]
- IC50 (HSV1 [1]): > 15 µM

Substance: LRWRKRWRKWRWRKRWRK-NH2 (C-terminus assumed) [MU_30]
- IC50 (HSV1 [1]): 7.5 µM

Substance: RRWRKRWRKRRWRKRWRK-NH2 (C-terminus assumed) [MU_33]
- IC50 (HSV1 [1]): 6.5 µM
- IC50 (HSV2 clinical isolates): > 20 µM

Substance: RRWRKRWRKWRWRKRWRK-NH2 (C-terminus assumed) [MU_28]
- IC50 (HSV1 [1]): 7.5 µM

Substance: RTRKRGRKRTRKRGRK-NH2 (C-terminus assumed) [GIN 35]
- IC50 (HSV1 [1]): 9 µM
- antiviral activity against HSV1 (in words) (HSV1 [1]): have antiviral activity

Substance: RTRKRGRRTRKRGR-NH2 (C-terminus assumed) [GIN 36]
- IC50 (HSV1 [1]): 9 µM
- antiviral activity against HSV1 (in words) (HSV1 [1]): have antiviral activity

Substance: RTRKRWRKRTRKRGRK-NH2 (C-terminus assumed) [MU_70]
- IC50 (HSV1 [1]): 9.5 µM
- IC50 (HSV2 clinical isolates): > 20 µM

Substance: RWRKRGRKRWRKRGRK-NH2 (C-terminus assumed) [MU_69]
- IC50 (HSV1 [1]): 13 µM

Substance: RWRKRWRKRWRKRWRK-NH2 (C-terminus assumed) [MU_37]
- IC50 (HSV1 [1]): 12.5 µM

Substance: RWRKRWRKRWRKRWRK-NH2 (C-terminus assumed) [MU_71]
- IC50 (HSV1 [1]): 16 µM

Substance: RWRKRWRKWRWRKRWRK-NH2 (C-terminus assumed) [MU_32]
- IC50 (HSV1 [1]): 7.5 µM
- IC50 (HSV2 clinical isolates): > 20 µM

Substance: RWRKRWRWRKRWRWRKRW-NH2 (C-terminus assumed) [MU_84]
- IC50 (HSV1 [1]): 10 µM

Substance: apoE 134-155: peptide derivative of apoE tested for antibacterial action (Azuma et al.) (RVRLASHLRKLRKRLLRDADDL; UniProt P02649 152-173, looked up, fragment)
- antibacterial action (in words) (bacteria): little effect
